Reference: ChEMBL document CHEMBL3639029, “Pyrrolopyrimidine compounds as inhibitors of CDK4/6” (2015)

What was measured:
[1] = target: Cyclin-dependent kinase 4 (Homo sapiens, UniProt P11802); test: Biological Assay: An assay for monitoring CDK4/cyclin D1-catalyzed phosphorylation of pRb at the Ser780 site was performed using TR-FRET in a 384-well format, and was used for IC50 determination and kinetic analysis. The reaction was carried out in a 30 uL volume containing 0.3 nM CDK4/cyclin D1, 150 nM biotin-pRb (773-924), 3 uM ATP, and 1.3% DMSO (or compound in DMSO) in the assay buffer (50 mM HEPES-Na, pH 7.5; 5 mM MgCl2, 1 mM DTT, 0.02% Tween-20, and 0.05% BSA). 3 uM ATP was added last to initiate the reaction. The reaction was quenched with 10 uL of 240 mM EDTA-Na (pH 8.0) after 60 min incubation at 22 C. The signal was developed by the addition of 40 uL detection solution containing 40 nM SA-APC, 143 ng/mL anti-phospho-pRb (S780) antibody, and 1 nM Eu-W1024 anti-rabbit IgG antibody in the detection buffer (50 mM HEPES-Na, pH 7.5, 60 mM EDTA-Na, pH 8.0, 0.05% BSA, and 0.1% Triton X-100). After 60 min incubation in the dark, the plate was read on Envision.
Chain of Cyclin-dependent kinase 4 (P11802 whole entry): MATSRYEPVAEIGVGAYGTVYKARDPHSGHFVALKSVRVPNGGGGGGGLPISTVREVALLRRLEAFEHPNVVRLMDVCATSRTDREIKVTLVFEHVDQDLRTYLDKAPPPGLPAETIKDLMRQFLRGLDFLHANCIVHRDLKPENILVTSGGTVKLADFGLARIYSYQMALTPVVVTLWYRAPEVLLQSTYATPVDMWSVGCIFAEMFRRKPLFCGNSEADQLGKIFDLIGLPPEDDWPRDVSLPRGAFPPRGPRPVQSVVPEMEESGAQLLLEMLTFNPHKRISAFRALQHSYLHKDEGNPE

[2] = target: Cyclin-dependent kinase 1 (Homo sapiens, UniProt P06493); test: IMAP-FP (Molecular Devices Trade Mark Technology) Endpoint Assay: A 384-well microtiter IMAP-FP (Molecular Devices Trade Mark Technology) endpoint assay was used for CDK1/cyclin B kinase activity measurements. The same assay was used for IC50 determination of small molecule inhibitors. In general, the kinase reactions were carried out in 20 uL volumes in the reaction solution, which is composed of 2 uL compound (in 20% DMSO), 8 uL CDK1/cyclin B in the 1x Reaction Buffer (Molecular Devices, Cat. No. R8139), 10 uL substrate mixture of Tamra Histone-H1 peptide (Molecular Devices, Cat. No. R7384) and ATP (Amersham Pharmacia, Cat. No. 27-2056-01) in the 1x Reaction Buffer with 1 mM DTT freshly added. The final reaction mixture contains compound (inhibitor) with the concentration varying from 0.005-10 uM, 2% DMSO, 0.25 nM CDK1/cyclin B, 100 nM Tamra Histone-H1 peptide, and 20 uM ATP.All reactions were run at room temperature in black 384-well flat-bottom Costar plates (Corning, Cat. No. 3710) for 120 min then were quenched.
Chain of Cyclin-dependent kinase 1 (P06493 whole entry): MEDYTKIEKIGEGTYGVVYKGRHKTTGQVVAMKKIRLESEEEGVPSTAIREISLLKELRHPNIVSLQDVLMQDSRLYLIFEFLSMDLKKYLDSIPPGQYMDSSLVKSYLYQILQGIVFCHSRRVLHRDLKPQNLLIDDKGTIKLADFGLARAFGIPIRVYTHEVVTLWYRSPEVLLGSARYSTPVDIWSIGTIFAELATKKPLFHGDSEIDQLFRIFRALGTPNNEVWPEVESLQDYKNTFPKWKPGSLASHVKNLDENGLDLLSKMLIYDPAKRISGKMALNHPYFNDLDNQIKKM

CN(C)C(=O)c1cc2cnc(Nc3ccc(N4CC5CCC(CC4=O)N5)cn3)nc2n1-c1ccc(C(C)(C)C#N)cc1 (configuration not stated)
IC50 [1]: 5 nM
IC50 [2]: > 15000 nM
